Measured values: patent US12606557B2, “Substituted indoles with inhibitory activity” (UNIVERSITY OF PITTSBURGH—OF THE COMMONWEALTH SYSTEM OF …, priority 2020, dated 2026)
“And” between values parts separate entries of the source, which are not always exact repeats. Equal values may be shown once. Read-outs that look alike come from different tables or passages of the source.

Assay: Blood pharmacokinetics after a single intraperitoneal dose
Format: in vivo, male CD1 mice
Conditions: for blood concentrations quantifiable up to: 1 animal out of 3, LLOQ 10.04 ng/mL; for concentration at 0.08 hr / concentration at 0.25 hr / concentration at 0.5 hr / concentration at 1 hr / concentration at 2 hr / concentration at 4 hr / concentration at 8 hr / concentration at 24 hr / AUC(0-inf) / AUC(0-t) / Cmax / Tmax: male, CD1, mouse, in vivo; for concentration at 24 hr: value excluded from data analysis; for AUC(0-inf) / AUC(0-t) / Cmax / Tmax: blood, mean
Description: The objective of this example was to investigate the blood pharmacokinetics of UPHH-123 in male CD1 mice following a single intraperitoneal dose administration. Eighteen male CD1 mice were divided in two groups as, Group 1 and Group 2 comprising nine mice in each group.
Animals in Group 1 were administered intraperitoneally with UPHH-123 solution formulation in 5% NMP, 5% Solutol HS, 30% PEG-400 and 60% normal saline at 10.4 mg/kg dose. Animals in Group 2 were administered intraperitoneally with UPHH-123 solution formulation in 5% NMP, 5% Solutol HS, 30% PEG-400 and 60% normal saline) at 52 mg/kg dose.
Blood samples (approximately 120 μL) were collected at pre-dose, 0.08, 0.25, 0.5, 1, 2, 4, 8 and 24 hr. The blood samples were collected at each time point in a labeled micro centrifuge tube containing K2EDTA as anticoagulant. Immediately aliquot (50 μL) of blood was hemolyzed with equal volume of water (50 μL) and quenched with three volume (150 μL) of acetonitrile (IS containing acetonitrile) and samples were stored below −70° C. until bioanalysis. All samples were processed for analysis by protein precipitation using acetonitrile (ACN) and analyzed with fit for purpose LC/MS/MS method (LLOQ: 10.04 ng/mL for UPHH-123 in blood). Pharmacokinetic parameters were calculated using the non-compartmental analysis tool of Phoenix WinNonlin (Version 7.0). Mean pharmacokinetic parameters are summarized below: […]

Question: What does the source list for `COc1ccc(Cn2ccc3ccc(C(=O)NO)cc32)cc1` [UPHH-123]?
Answer: blood concentrations quantifiable up to (10.4 mg/kg IP): up to 24 hr; Blood Concentration, individual animal (10.4 mg/kg IP, 0.08 hr): 2082.46 ng/mL and 2293.56 ng/mL; Blood Concentration, individual animal (10.4 mg/kg IP, 0.25 hr): 2572.69 ng/mL and 4414.44 ng/mL; Blood Concentration, individual animal (10.4 mg/kg IP, 0.5 hr): 675.87 ng/mL and 848.67 ng/mL; Blood Concentration, individual animal (10.4 mg/kg IP, 1 hr): 105.72 ng/mL and 180.27 ng/mL; Blood Concentration, individual animal (10.4 mg/kg IP, 2 hr): 39.90 ng/mL and 98.73 ng/mL and 125.25 ng/mL; Blood Concentration, individual animal (10.4 mg/kg IP, 4 hr): 47.81 ng/mL and 118.38 ng/mL and 92.93 ng/mL; Blood Concentration, individual animal (10.4 mg/kg IP, 8 hr): 26.21 ng/mL and 17.80 ng/mL; Blood Concentration, individual animal (10.4 mg/kg IP, 24 hr, below LLOQ 10.04 ng/mL = zero): 0.00 ng/mL (2×) and 14.58 ng/mL; blood concentrations quantifiable up to (52 mg/kg IP): up to 24 hr; Blood Concentration, individual animal (52 mg/kg IP, 0.08 hr): 7841.88 ng/mL and 4635.35 ng/mL; Blood Concentration, individual animal (52 mg/kg IP, 0.25 hr): 6058.02 ng/mL and 5694.33 ng/mL; Blood Concentration, individual animal (52 mg/kg IP, 0.5 hr): 3520.30 ng/mL and 4708.54 ng/mL; Blood Concentration, individual animal (52 mg/kg IP, 1 hr): 2031.75 ng/mL and 2659.04 ng/mL; Blood Concentration, individual animal (52 mg/kg IP, 2 hr): 315.76 ng/mL and 238.47 ng/mL and 525.92 ng/mL; Blood Concentration, individual animal (52 mg/kg IP, 4 hr): 442.67 ng/mL and 145.43 ng/mL and 125.55 ng/mL; Blood Concentration, individual animal (52 mg/kg IP, 8 hr): 167.15 ng/mL and 107.02 ng/mL; Blood Concentration, individual animal (52 mg/kg IP, 24 hr, below LLOQ 10.04 ng/mL = zero): 0.00 ng/mL (2×) and 10.38 ng/mL; dose related increase in plasma exposure (from 10.4 to 52 mg/kg IP): 3.6 fold; concentration at 0.08 hr (10.4 mg/kg, 10.4 mg/kg IP, 0.08 hr, read-out: Blood Concentration, Mean): 1990 ng/mL; concentration at 0.08 hr (10.4 mg/kg, 10.4 mg/kg IP, 0.08 hr, read-out: Blood Concentration, individual animal): 1600 ng/mL; concentration at 0.25 hr (10.4 mg/kg, 10.4 mg/kg IP, 0.25 hr, read-out: Blood Concentration, Mean): 3810 ng/mL; concentration at 0.25 hr (10.4 mg/kg, 10.4 mg/kg IP, 0.25 hr, read-out: Blood Concentration, individual animal): 4440 ng/mL; concentration at 0.5 hr (10.4 mg/kg, 10.4 mg/kg IP, 0.5 hr, read-out: Blood Concentration, Mean): 681 ng/mL; concentration at 0.5 hr (10.4 mg/kg, 10.4 mg/kg IP, 0.5 hr, read-out: Blood Concentration, individual animal): 519 ng/mL; concentration at 1 hr (10.4 mg/kg, 10.4 mg/kg IP, 1 hr, read-out: Blood Concentration, Mean): 148 ng/mL; concentration at 1 hr (10.4 mg/kg, 10.4 mg/kg IP, 1 hr, read-out: Blood Concentration, individual animal): 158 ng/mL; concentration at 2 hr (10.4 mg/kg, 10.4 mg/kg IP, 2 hr): 88 ng/mL; concentration at 4 hr (10.4 mg/kg, 10.4 mg/kg IP, 4 hr): 86.4 ng/mL; concentration at 8 hr (10.4 mg/kg, 10.4 mg/kg IP, 8 hr, read-out: Blood Concentration, Mean): 22.6 ng/mL; concentration at 8 hr (10.4 mg/kg, 10.4 mg/kg IP, 8 hr, read-out: Blood Concentration, individual animal): 23.9 ng/mL; concentration at 24 hr (10.4 mg/kg, 10.4 mg/kg IP, 24 hr): 14.6 ng/mL; concentration at 0.08 hr (52 mg/kg, 52 mg/kg IP, 0.08 hr, read-out: Blood Concentration, Mean): 6160 ng/mL; concentration at 0.08 hr (52 mg/kg, 52 mg/kg IP, 0.08 hr, read-out: Blood Concentration, individual animal): 6000 ng/mL; concentration at 0.25 hr (52 mg/kg, 52 mg/kg IP, 0.25 hr, read-out: Blood Concentration, Mean): 5680 ng/mL; concentration at 0.25 hr (52 mg/kg, 52 mg/kg IP, 0.25 hr, read-out: Blood Concentration, individual animal): 5280 ng/mL; concentration at 0.5 hr (52 mg/kg, 52 mg/kg IP, 0.5 hr, read-out: Blood Concentration, Mean): 3820 ng/mL; concentration at 0.5 hr (52 mg/kg, 52 mg/kg IP, 0.5 hr, read-out: Blood Concentration, individual animal): 3230 ng/mL; concentration at 1 hr (52 mg/kg, 52 mg/kg IP, 1 hr, read-out: Blood Concentration, Mean): 2330 ng/mL; concentration at 1 hr (52 mg/kg, 52 mg/kg IP, 1 hr, read-out: Blood Concentration, individual animal): 2280 ng/mL; concentration at 2 hr (52 mg/kg, 52 mg/kg IP, 2 hr): 360 ng/mL; concentration at 4 hr (52 mg/kg, 52 mg/kg IP, 4 hr): 238 ng/mL; concentration at 8 hr (52 mg/kg, 52 mg/kg IP, 8 hr, read-out: Blood Concentration, Mean): 145 ng/mL; concentration at 8 hr (52 mg/kg, 52 mg/kg IP, 8 hr, read-out: Blood Concentration, individual animal): 160 ng/mL; concentration at 24 hr (52 mg/kg, 52 mg/kg IP, 24 hr): 10.4 ng/mL; AUC(0-inf) (10.4 mg/kg IP): 1950 ng·h/mL; AUC(0-t) (10.4 mg/kg IP): 1850 ng·h/mL; Cmax (10.4 mg/kg IP): 3810 ng/mL; Tmax (10.4 mg/kg IP): 15 min; AUC(0-inf) (52 mg/kg IP): 7640 ng·h/mL; AUC(0-t) (52 mg/kg IP): 6680 ng·h/mL; Cmax (52 mg/kg IP): 6160 ng/mL; Tmax (52 mg/kg IP): 4.8 min
